Source: PubChem BioAssay AID1259407 (Chemical Carcinogenesis Research Information System (CCRIS), 2018)
The source made the active and inactive calls. The rule behind the calls is not given here.

System: CCRIS mutagenicity, Ames/micronucleus/aberration tests
Assay: CCRIS mutagenicity studies
[1] = Test System: AMES SALMONELLA TYPHIMURIUM, Strain/Indicator: TA97, Metabolic Activation: NONE, Method: PREINCUBATION
[2] = Test System: AMES SALMONELLA TYPHIMURIUM, Strain/Indicator: TA98, Metabolic Activation: NONE, Method: PREINCUBATION
[3] = Test System: AMES SALMONELLA TYPHIMURIUM, Strain/Indicator: TA100, Metabolic Activation: NONE, Method: PREINCUBATION
[4] = Test System: AMES SALMONELLA TYPHIMURIUM, Strain/Indicator: TA1535, Metabolic Activation: NONE, Method: PREINCUBATION
[5] = Test System: AMES SALMONELLA TYPHIMURIUM, Strain/Indicator: TA100, Metabolic Activation: NONE, Method: STANDARD PLATE
[6] = Test System: AMES SALMONELLA TYPHIMURIUM, Strain/Indicator: TA98, Metabolic Activation: NONE, Method: STANDARD PLATE

## Clc1ccc(COC(Cn2ccnc2)c2ccc(Cl)cc2Cl)cc1 (configuration not stated)
End Point: IN VITRO MICRONUCLEUS, Test System: HAMSTER V79 CELLS, Metabolic Activation: NONE
  mutagenic call: inactive; negative
Test System: AMES SALMONELLA TYPHIMURIUM, Strain/Indicator: TA97, Metabolic Activation: HAMSTER, LIVER, S-9, AROCLOR 1254 (10 OR 30%), Method: PREINCUBATION
  mutagenic call: inactive; negative
[1]
  mutagenic call: inactive; negative
Test System: AMES SALMONELLA TYPHIMURIUM, Strain/Indicator: TA97, Metabolic Activation: RAT, LIVER, S-9, AROCLOR 1254 (10 OR 30%), Method: PREINCUBATION
  mutagenic call: inactive; negative
Test System: AMES SALMONELLA TYPHIMURIUM, Strain/Indicator: TA98, Metabolic Activation: HAMSTER, LIVER, S-9, AROCLOR 1254 (10 OR 30%), Method: PREINCUBATION
  mutagenic call: inactive; negative
[2]
  mutagenic call: inactive; negative
Test System: AMES SALMONELLA TYPHIMURIUM, Strain/Indicator: TA98, Metabolic Activation: RAT, LIVER, S-9, AROCLOR 1254 (10 OR 30%), Method: PREINCUBATION
  mutagenic call: inactive; negative
Test System: AMES SALMONELLA TYPHIMURIUM, Strain/Indicator: TA100, Metabolic Activation: HAMSTER, LIVER, S-9, AROCLOR 1254 (10 OR 30%), Method: PREINCUBATION
  mutagenic call: inactive; negative
[3]
  mutagenic call: inactive; negative
Test System: AMES SALMONELLA TYPHIMURIUM, Strain/Indicator: TA100, Metabolic Activation: RAT, LIVER, S-9, AROCLOR 1254 (10 OR 30%), Method: PREINCUBATION
  mutagenic call: inactive; negative
Test System: AMES SALMONELLA TYPHIMURIUM, Strain/Indicator: TA1535, Metabolic Activation: HAMSTER, LIVER, S-9, AROCLOR 1254 (10 OR 30%), Method: PREINCUBATION
  mutagenic call: inactive; negative
[4]
  mutagenic call: inactive; negative
Test System: AMES SALMONELLA TYPHIMURIUM, Strain/Indicator: TA1535, Metabolic Activation: RAT, LIVER, S-9, AROCLOR 1254 (10 OR 30%), Method: PREINCUBATION
  mutagenic call: inactive; negative

## COc1ccc(CCl)cc1
[5]
  mutagenic call: inactive; negative

## CCCCC=O
Test System: AMES SALMONELLA TYPHIMURIUM, Strain/Indicator: TA98, Metabolic Activation: HAMSTER, LIVER, S-9, AROCLOR 1254, Method: STANDARD PLATE
  mutagenic call: inactive; negative
[6]
  mutagenic call: inactive; negative
Test System: AMES SALMONELLA TYPHIMURIUM, Strain/Indicator: TA98, Metabolic Activation: RAT, LIVER, S-9, AROCLOR 1254, Method: STANDARD PLATE
  mutagenic call: inactive; negative
Test System: AMES SALMONELLA TYPHIMURIUM, Strain/Indicator: TA100, Metabolic Activation: HAMSTER, LIVER, S-9, AROCLOR 1254, Method: STANDARD PLATE
  mutagenic call: inactive; negative
[5]
  mutagenic call: inactive; negative
Test System: AMES SALMONELLA TYPHIMURIUM, Strain/Indicator: TA100, Metabolic Activation: RAT, LIVER, S-9, AROCLOR 1254, Method: STANDARD PLATE
  mutagenic call: inactive; negative
Test System: AMES SALMONELLA TYPHIMURIUM, Strain/Indicator: TA1535, Metabolic Activation: HAMSTER, LIVER, S-9, AROCLOR 1254, Method: STANDARD PLATE
  mutagenic call: inactive; negative
Test System: AMES SALMONELLA TYPHIMURIUM, Strain/Indicator: TA1535, Metabolic Activation: NONE, Method: STANDARD PLATE
  mutagenic call: inactive; negative
Test System: AMES SALMONELLA TYPHIMURIUM, Strain/Indicator: TA1535, Metabolic Activation: RAT, LIVER, S-9, AROCLOR 1254, Method: STANDARD PLATE
  mutagenic call: inactive; negative
Test System: AMES SALMONELLA TYPHIMURIUM, Strain/Indicator: TA1537, Metabolic Activation: HAMSTER, LIVER, S-9, AROCLOR 1254, Method: STANDARD PLATE
  mutagenic call: inactive; negative
Test System: AMES SALMONELLA TYPHIMURIUM, Strain/Indicator: TA1537, Metabolic Activation: NONE, Method: STANDARD PLATE
  mutagenic call: inactive; negative
Test System: AMES SALMONELLA TYPHIMURIUM, Strain/Indicator: TA1537, Metabolic Activation: RAT, LIVER, S-9, AROCLOR 1254, Method: STANDARD PLATE
  mutagenic call: inactive; negative
Test System: AMES SALMONELLA TYPHIMURIUM, Strain/Indicator: TA1538, Metabolic Activation: HAMSTER, LIVER, S-9, AROCLOR 1254, Method: STANDARD PLATE
  mutagenic call: inactive; negative
Test System: AMES SALMONELLA TYPHIMURIUM, Strain/Indicator: TA1538, Metabolic Activation: NONE, Method: STANDARD PLATE
  mutagenic call: inactive; negative
Test System: AMES SALMONELLA TYPHIMURIUM, Strain/Indicator: TA1538, Metabolic Activation: RAT, LIVER, S-9, AROCLOR 1254, Method: STANDARD PLATE
  mutagenic call: inactive; negative
Test System: CHINESE HAMSTER V-79, Strain/Indicator: V-79/6-THIOGUANINE (HGPRT), Metabolic Activation: NONE, Method: REPLATING
  mutagenic call: active; positive
Test System: CHINESE HAMSTER V-79, Strain/Indicator: V-79/OUABAIN (NA/K), Metabolic Activation: NONE, Method: REPLATING
  mutagenic call: active; positive
Test System: MOUSE LYMPHOMA, Strain/Indicator: L5178Y (TK+/TK-), Metabolic Activation: NONE, Method: SUSPENSION/PLATE
  mutagenic call: active; positive. reevaluation of results: positive
Test System: MOUSE LYMPHOMA, Strain/Indicator: L5178Y (TK+/TK-), Metabolic Activation: RAT, LIVER, S-9, AROCLOR 1254, Method: SUSPENSION/PLATE
  mutagenic call: inactive; negative. reevaluation of results: negative
Test System: UDS HUMAN HEPATOCYTES, Strain/Indicator: THY INCORP, Metabolic Activation: NONE, Method: AUTORADIOGRAPHY
  mutagenic call: inactive; negative
Test System: UDS RAT HEPATOCYTES, Strain/Indicator: THY INCORP, Metabolic Activation: NONE, Method: AUTORADIOGRAPHY
  mutagenic call: active; positive

## CN(CC(N)=O)C(=O)N(CCCl)N=O
Test System: Mouse lymphoma, Strain/Indicator: L5178Y (tk+/tk-), Metabolic Activation: None, Method: Suspension/plate
  mutagenic call: active; positive
Test System: Mouse lymphoma, Strain/Indicator: L5178Y (tk+/tk-), Metabolic Activation: Rat, Liver, S-9, Aroclor 1254, Method: Suspension/plate
  mutagenic call: active; positive

## CCCCCC(=O)OCC
[1]
  mutagenic call: inactive; negative
Test System: AMES SALMONELLA TYPHIMURIUM, Strain/Indicator: TA97, Metabolic Activation: RAT, LIVER, S-9, AROCLOR 1254, Method: PREINCUBATION
  mutagenic call: inactive; negative
Test System: AMES SALMONELLA TYPHIMURIUM, Strain/Indicator: TA102, Metabolic Activation: NONE, Method: PREINCUBATION
  mutagenic call: inactive; negative
Test System: AMES SALMONELLA TYPHIMURIUM, Strain/Indicator: TA102, Metabolic Activation: RAT, LIVER, S-9, AROCLOR 1254, Method: PREINCUBATION
  mutagenic call: inactive; negative

## CN(C)c1ccc(N=NS(=O)(=O)O)cc1
Test System: AMES SALMONELLA TYPHIMURIUM, Strain/Indicator: TA97, Metabolic Activation: HAMSTER, LIVER, S-9, AROCLOR 1254 (10%), Method: PREINCUBATION
  mutagenic call: active; positive
[1]
  mutagenic call: active; positive
Test System: AMES SALMONELLA TYPHIMURIUM, Strain/Indicator: TA97, Metabolic Activation: RAT, LIVER, S-9, AROCLOR 1254 (10%), Method: PREINCUBATION
  mutagenic call: active; positive
Test System: AMES SALMONELLA TYPHIMURIUM, Strain/Indicator: TA98, Metabolic Activation: HAMSTER, LIVER, S-9, AROCLOR 1254 (10%), Method: PREINCUBATION
  mutagenic call: active; positive
[2]
  mutagenic call: active; positive
[6]
  mutagenic call: active; positive
Test System: AMES SALMONELLA TYPHIMURIUM, Strain/Indicator: TA98, Metabolic Activation: RAT, LIVER, S-9, AROCLOR 1254 (10%), Method: PREINCUBATION
  mutagenic call: active; positive
Test System: AMES SALMONELLA TYPHIMURIUM, Strain/Indicator: TA98, Metabolic Activation: S-9 MIX, Method: STANDARD PLATE
  mutagenic call: active; positive
Test System: AMES SALMONELLA TYPHIMURIUM, Strain/Indicator: TA100, Metabolic Activation: HAMSTER, LIVER, S-9, AROCLOR 1254 (10%), Method: PREINCUBATION
  mutagenic call: active; positive
[3]
  mutagenic call: active; positive
Test System: AMES SALMONELLA TYPHIMURIUM, Strain/Indicator: TA100, Metabolic Activation: RAT, LIVER, S-9, AROCLOR 1254 (10%), Method: PREINCUBATION
  mutagenic call: active; positive
Test System: AMES SALMONELLA TYPHIMURIUM, Strain/Indicator: TA1535, Metabolic Activation: HAMSTER, LIVER, S-9, AROCLOR 1254 (10%), Method: PREINCUBATION
  mutagenic call: active; positive
[4]
  mutagenic call: inactive; negative
Test System: AMES SALMONELLA TYPHIMURIUM, Strain/Indicator: TA1535, Metabolic Activation: RAT, LIVER, S-9, AROCLOR 1254 (10%), Method: PREINCUBATION
  mutagenic call: inactive; negative
Test System: E. COLI, Strain/Indicator: WP2, Metabolic Activation: NONE, Method: STANDARD PLATE
  mutagenic call: active; positive
Test System: E. COLI, Strain/Indicator: WP2 UVRA, Metabolic Activation: NONE, Method: STANDARD PLATE
  mutagenic call: active; positive
